Test results taken from patent US11478474B2, “2-(3′-(hydroxymethyl)-1-methyl-5-((5-(2-methyl-4-(oxetan-3-yl)piperazin-1-yl)pyridin-2-yl)amino)-6-oxo-1,6-dihydro-[3,4′-bipyridin]-2′-yl)-7,7-dimethyl-7,8-dihydro-2H-cyclopenta[4,5]pyrrolo[1,2-a]pyrazin-1(6H)-one as a BTK inhibitor” (HUTCHISON MEDIPHARMA LIMITED, priority 2020, dated 2022).

Columns and labels:
[1] = target: phosphorylated BTK in Ramos cells (Homo sapiens (Human), UniProt Q06187); assay: Determination of phosphorylated BTK in Ramos cells (BTK phospho-Y223 HTRF); type: cell-based; conditions: anti-human IgM + hydrogen peroxide stimulation
Sequence of phosphorylated BTK in Ramos cells (Q06187 whole entry): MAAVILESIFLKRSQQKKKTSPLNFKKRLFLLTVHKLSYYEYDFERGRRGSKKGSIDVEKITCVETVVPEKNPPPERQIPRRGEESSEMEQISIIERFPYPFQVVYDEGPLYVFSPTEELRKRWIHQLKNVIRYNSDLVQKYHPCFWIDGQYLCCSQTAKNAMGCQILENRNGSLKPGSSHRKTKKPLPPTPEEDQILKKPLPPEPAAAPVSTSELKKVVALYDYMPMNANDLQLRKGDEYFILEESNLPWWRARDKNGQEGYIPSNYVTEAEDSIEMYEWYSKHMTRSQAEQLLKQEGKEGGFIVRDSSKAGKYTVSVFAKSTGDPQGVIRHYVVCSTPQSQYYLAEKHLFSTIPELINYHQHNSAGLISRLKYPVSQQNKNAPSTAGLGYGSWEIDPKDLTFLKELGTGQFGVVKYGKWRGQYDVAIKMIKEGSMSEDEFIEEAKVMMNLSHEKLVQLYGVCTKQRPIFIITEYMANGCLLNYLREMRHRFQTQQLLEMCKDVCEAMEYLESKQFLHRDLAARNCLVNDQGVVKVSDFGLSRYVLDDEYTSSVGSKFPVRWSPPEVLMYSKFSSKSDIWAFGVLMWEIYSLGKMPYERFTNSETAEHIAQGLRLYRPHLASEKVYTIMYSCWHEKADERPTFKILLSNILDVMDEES
Method in brief: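 Ramos cells starved 2 h in 1% FBS, then treated 1 h with compound (0.00018–3.0 μM, 0.3% DMSO). They were then stimulated 10 min at 37° C. with anti-human IgM (10 μg/mL) plus H2O2 (3.3 mM). Lysates read by BTK phospho-Y223 HTRF (665/615 nm ratio); IC50 fitted from inhibition normalized to stimulated and unstimulated controls.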

[2] = tested on: B cell activation in rat whole blood; assay: Determination of B cell activity in whole blood of rats (anti-rat IgD induced B cell activation, flow cytometry); type: cell-based; conditions: anti-rat immunoglobulin D 10 μg/mL, 18 hours, inhibition of B cell activation
Protocol: Example 4 Determination of B Cell Activity in Whole Blood of Rats
1. Reagents and Materials
Peripheral whole blood of female Wistar rats;
In the determination of the compound activity, the collected peripheral whole blood of rat was added to a 96 well plate at 80 μL/well and cultured in a 5% CO2, 37° C. cell incubator. After half an hour, the test compound was diluted with PBS in a 3-fold gradient to the corresponding concentrations, and then the diluted test compound with different concentrations was added to the culture system of rat whole blood at 10 μL/well (the final concentration of the test compound was 1.0, 0.33, 0.11, 0.037, 0.012, 0.0041, 0.0014, and 0.0005 μM, the final concentration of DMSO was 0.3%, double replicate wells), or the control solution (0.3% DMSO, 6 replicate wells) was added to the corresponding well at 10 μL/well, which were incubated in the cell incubator for one hour. Then 10 μL/well of anti-rat immunoglobulin D diluted in PBS (the final concentration was 10 μg/mL) was add to the treating wells of the test compound and control wells for anti-rat immunoglobulin D, or 10 μL/well of PBS was added to the negative control wells, which were mixed well to continue the culture in a 5% CO2, 37° C. cell incubator, and incubated for 18 hours.
On the second day, the 96-well plates were taken out and the flow cytometry antibody mixture (the final concentration of anti-rat B220PE antibody was 1 μg/mL and the final concentration of anti-rat CD86 FITC antibody was 1 μg/mL) diluted with PBS was added to each well of plate, which were incubated for 30 minutes in the dark, and then 50 μL of blood from each well was pipetted to the freshly prepared 500 μL of lysis buffer to lyse red blood cells. The plates were shaken for 20 minutes, centrifuged to remove the supernatant, then washed, fixed, and detected on a flow cytometer.
The B cell activation in the sample was determined by flow dyeing method.
The average value of the proportion of activated B cells in the wells with anti-rat immunoglobulin D but without the test compound was used as the control treating well for anti-rat immunoglobulin D, and the average value of the proportion of activated B cells in the wells without immunoglobulin D stimulation and without the test compound was used as the negative control treating well. According to the B cell activation ratio in each well, the inhibition ratio (%) of each concentration was calculated, and then the IC50 value was obtained by using the 205 model in XL-Fit 5.3 software (ID Business Solutions Limited).
The inhibition ratio is calculated as follows: inhibition ratio (%)=100%−{(treating well for the test compound−negative control treating well)/(control treating well for anti-rat immunoglobulin D−negative control treating well)}×100%, wherein,
Treating well for the test compound: represents the B cell activation ratio in rat whole blood treated with anti-rat immunoglobulin D and the test compound.
Control treating well for anti-rat immunoglobulin D: represents the B cell activation ratio in rat whole blood treated with anti-rat immunoglobulin D but without the test compound.
Negative control treating well: represents the B cell activation ratio in rat whole blood without the test compound and without immunoglobulin stimulation.
Through the above-mentioned test, the compound of the present invention has a potency to inhibit B cell activation in rat whole blood.

[3] = Stability test in liver microsomes (rat); type: in vitro ADME
From the text: (§1) Example 5 Stability Test in Liver Microsomes
(§2) Both male CD-1 mouse pooled liver microsomes and male SD rat pooled liver microsomes were purchased from BioreclamationIVT Corporation, USA.
(§3) Phenacetin, glucose-6-phosphate dehydrogenase (G-6-PDH) and nicotinamide adenine dinucleotide phosphate (NADP) were all purchased from Sigma-Aldrich Corporation, USA. Glucose-6-phosphate (G-6-P) was purchased from Shanghai Eybridge Chemical Technology Co., Ltd.
(§4) Ten mM test compound stock solution: a certain amount of test compound was weighed, and dissolved with an appropriate volume of DMSO to prepare a stock solution with a concentration of 10 mM for use.
(§5) Reaction stopping solution: an appropriate amount of internal standard compound phenacetin was dissolved in acetonitrile to prepare a reaction stopping solution with a concentration of 1000 ng/mL for use at room temperature.
(§6) The test compound stock solution was diluted with an organic solvent (usually a mixture of acetonitrile, methanol and water with various ratios, depending on the solubility of the compound, if necessary, 1 N hydrochloric acid or 1 N sodium hydroxide would be added to facilitate solubilization) to the 0.1 mM (the final concentration of the compound in the reaction system was 1 μM) and the concentration percentage of the organic solvents in the incubation system no more than 1% (wherein the percentage of DMSO was required to be no more than 0.1%). An appropriate amount of 100 mM NADP, 500 mM G-6-P and 100 Unit/mL G-6-PDH were mixed and diluted with ultrapure water (the final system contains 1 mM NADP, 5 mM G-6-P and 1 Unit/mL G-6-PDH), pre-incubated in a 37° C. water bath for 10 minutes and then placed on ice for use as a NADPH regeneration solution. 20 mg/mL liver microsomes solution and 200 mM phosphate buffer was mixed, and diluted with ultrapure water to give a liver microsomes solution containing 2.5 mg/mL liver microsomes (the final concentration of the reaction system is 0.5 mg/mL) and 50 mM phosphate buffer. The diluted liver microsomes solution was mixed with 0.1 mM compound solution, a mixture of 100 mM EDTA, 300 mM MgCl2 solution, 200 mM phosphate buffer (the final system was 3 mM MgCl2, 1 mM EDTA and 50 mM phosphate buffer) and water in an appropriate volume was added. Finally, the NADPH regeneration solution was added, then the reaction solution was placed in a 37° C. water bath to start the reaction (the reaction time was 30 minutes), and the reaction was stopped by adding the ice-cold acetonitrile reaction stopping solution containing the internal standard. The 0-minute sample was not incubated in a 37° C. water bath, and its difference from the 30-minute sample further lies in that the ice-cold acetonitrile reaction stopping solution containing the internal standard was added first, and then the NADPH regeneration solution was added. The sample added with the reaction stopping internal standard solution was vortexed and mixed well, and then centrifuged at 4400 rpm for 10 minutes. The supernatant was taken and diluted ten times with 50% methanol for LC-MS/MS analysis.
(§7) LC-MS/MS was used to determine the concentration of the compound in the sample. The percentage of the remaining compound after 30 minutes of incubation comparing with that in the 0-minute sample was calculated using the peak area ratio of the compound to the internal standard as an indicator, to evaluate the metabolic stability of the compound.
(§8) Instrument: API4500, API4000 or LTQ Mass Spectrometer; the liquid phase is UHPLC system (Shimadzu LC-30 AD, model Nexra X2) including liquid delivery unit, column thermostat, detector and autosampler; or Agilent 1200 Binary Pump series HPLC and CTC Autosampler.
(§9) Chromatographic column: Waters XSELECT Hss T3 C18 (2.5 μm, 2.1×50 mm) or […] (5 μm, 2.0×50 mm)
(§10) A: water with 0.1% FA (formic acid) (with or without 0.1% ACN (acetonitrile))
(§11) B: acetonitrile with 0.1% FA (formic acid).

[4] = Stability test in liver microsomes (mouse); type: in vitro ADME; conditions: mouse liver microsomes 0.5 mg/mL, compound 1 μM, 37° C.
From the text: as §1, §2, §3, §4, §5, §6, §7, §8, §9, §10, §11

BTK recombinant protein = BTK recombinant protein (Homo sapiens (Human), UniProt Q06187); assay: Determination of biochemical BTK (Z'-LYTE kinase assay)
Sequence of BTK recombinant protein (Q06187 whole entry): as above
Method in brief: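 Human BTK recombinant kinase (3.32 nM final) was preincubated with compound for 30 min at 4 °C. Reaction ran 1 h at room temperature with Tyr01 FRET peptide (2 μM) and ATP (32 μM); development protease then added. Coumarin 445 nm/fluorescein 520 nm emission ratio (400 nm excitation) gave inhibition across 8 concentrations, 3000–1.37 nM.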

[5] = tested on: TMD8 subcutaneous xenograft (human diffuse large B-cell lymphoma cells); assay: In vivo efficacy in TMD8 subcutaneous xenograft model in nude mice
Protocol: Example 7 Evaluation of In Vivo Efficacy of the Compound of the Present Invention in TMD8 Subcutaneous Xenograft Model
Objects: To investigate the anti-tumor activity of compound 19 in TMD8 subcutaneous xenograft model in nude mice.
Methods: Human diffuse large B-cell lymphoma cells TMD8 (acquired under license from Tokyo Medical and Dental University) were cultured in RPMI1640 medium containing 10% fetal bovine serum. 1×10^7 tumor cells suspended in RPMI1640 medium mixed well with Matrigel (purchased from Corning, USA) at 1:1 were implanted subcutaneously on the right flank of each male Balb/c nude mouse (Shanghai Lingchang Biotechnology Co., Ltd.), pretreated with cyclophosphamide (at a dose of 200 mg/kg, intraperitoneal injection 24 h before cell inoculation). […] All drugs were administered by oral gavage, once a day, and the vehicle control group was administered orally with 0.5% hydroxypropyl methylcellulose solution (pH=3).
Tumor volumes (tumor volume=0.5×long diameter×short diameter^2) and body weights of the mice were measured regularly. The tumor volume change and body weight were statistically analyzed, with p<0.05 considered statistically significant, and p<0.01 as extremely statistically significant.
The anti-tumor activity was evaluated by tumor growth inhibition. Tumor growth inhibition (TGI %)=100%×(1−(TVDt (treatment group)−TVD0 (treatment group))/(TVDt (control group)−TVD0 (control group))) Relative body weight (RBW %)=BWDt/BWD0×100%
wherein, TVD0 represents the tumor volume obtained at first measurement, namely, the tumor volume before drug administration, and TVDt represents the tumor volume on the day of measurement; BWD0 represents the body weight of the animal obtained at first measurement, namely, the body weight of the animal before drug administration; BWDt represents the body weight of the animal on the day of measurement.

[6] = 50 mg/kg oral gavage once a day, Day 21

IC50 [1]	IC50 [2]	SMILES	further results
1 nM	5 nM	CC1(C)Cc2cc3c(=O)n(-c4nccc(-c5cc(Nc6cc7n(n6)CCN(C6COC6)C7)c6ncnn6c5)c4CO)ccn3c2C1 [Compound 13]	–
24 nM	29 nM	CCn1cc(Nc2cc(-c3ccnc(-n4ccn5c6c(cc5c4=O)CC(C)(C)C6)c3CO)nn(C)c2=O)nn1 [Compound 25]	–
10 nM	–	Cn1cc(-c2ccnc(-n3ccn4c5c(cc4c3=O)CC(C)(C)C5)c2CO)cc(Nc2ccc(N3CCN(C4COC4)CC3=O)cn2)c1=O [Compound 34]	stability in rat & mouse liver microsomes compared with the reference GDC-0853 ([3]; rat & mouse liver microsomes, 30 minutes): better than that of the reference GDC-0853; RLM (percentage of the remaining compound after 30 minutes of incubation) ([3]; rat liver microsomes 0.5 mg/mL, compound 1 μM, 37° C.): ~100%; MLM (percentage of the remaining compound after 30 minutes of incubation) [4]: 89.5%
–	2 nM	C[C@@H]1CN(c2ccc(Nc3cc(-c4ccnc(-n5ccn6c7c(cc6c5=O)CC(C)(C)C7)c4CO)nn(C)c3=O)nc2)[C@@H](C)CN1C1COC1 [Compound 5]	IC50 (BTK recombinant protein): 9 nM
–	–	C=CC(=O)N1CCC[C@@H](n2nc(-c3ccc(Oc4ccccc4)cc3)c3c(N)ncnc32)C1 [Ibrutinib, reference compound]	Number of animals with CR (Day 21) ([5]; 50 mg/kg oral gavage once a day, 8 animals per group): 1; Tumor volume (mm^3) ± SD Day 0 ([5]; 50 mg/kg oral gavage once a day, Day 0, before drug administration): 397 ± 42 mm^3; TGI (%) [5, 6]: 42.4%; Tumor volume (mm^3) ± SD Day 21 [5, 6]: 2027 ± 991 mm^3; RBW (%) (Day 21) ([5]; 50 mg/kg oral gavage once a day, relative body weight): 111.4%; Tumor growth inhibition (TGI %) ([5]; 50 mg/kg, oral gavage once a day, 21 days after treatment, vs vehicle control): 42.4%
17 nM	462 nM	C[C@H]1CN(C2COC2)CCN1c1ccc(Nc2nc(-c3ccnc(-n4ccn5c6c(cc5c4=O)CC(C)(C)C6)c3CO)cn(C)c2=O)nc1 [Compound 20]	–
4 nM	26 nM	CC1(C)Cc2cc3c(=O)n(-c4nccc(-c5cc(Nc6cc7n(n6)CCNC7)c6ncnn6c5)c4CO)ccn3c2C1 [Compound 17]	–
14 nM	85 nM	CCn1cc(Nc2cc(-c3ccnc(-n4ccn5c6c(cc5c4=O)CC(C)(C)C6)c3CO)cn(C)c2=O)nn1 [Compound 24]	–
2 nM	8 nM	CN1CCn2nc(Nc3cc(-c4ccnc(-n5ccn6c7c(cc6c5=O)CC(C)(C)C7)c4CO)cn4ncnc34)cc2C1 [Compound 16]	–
